Assay results taken from patent US20210120808A1, “Methods and Systems for Synergistic Continuity Approaches to Treatment and Preservation of Biological Cells” (Membrane Protective Technologies, Inc., priority 2017, published 2021).
Marks after values point to notes of the source that are not given here.

System: phospholipase A2
Experiment: Egg yolk coagulation by goat seminal plasma in lactose yolk extender, image analysis with ImageJ
Assay type: biochemical
Procedure: An egg yolk extender was prepared substituting lactose (Trizma base 131.5 mM, Lactose 73 mM 40% v:v egg yolk), without citric acid and pH was adjusted to a standard extender pH of 7. Semen from […] was collected using an artificial vagina. The ejaculate was centrifuged for 5 min at 1000×g. The supernatant (seminal plasma) was removed, then 1 part seminal plasma was added to 1 part extender to create a 20% yolk solution. Extender was either lactose yolk extender alone or lactose yolk extender modified to contain the phospholipase inhibitor curcumin as found in Sea Buckthorn (see Gupta et al. Molecular and Cellular biochemistry October 2006 290:193, hereby incorporated by reference). Representative pictures were taken of each solution, then the 22° C. solutions of seminal plasma plus the various extenders were frozen to −80° C. and allowed to remain frozen for >24 hrs. Samples were thawed by incubation in 37° C. water bath for 1 minute, then representative pictures were taken. For each picture, the negative space (the white area visible between droplets) was measured using ImageJ software by adjusting the image threshold using “Auto” setting then analyzing particle size (see Rasband, W. S., ImageJ, U.S. National Institutes of Health, Bethesda, Md., USA, https://imagej.nih.gov/ij/, 1997-2018, hereby incorporated by reference). The mean particle size was recorded and the images were analyzed in triplicate. […] The left column is a non-limiting example of a pictorial representation of the lactose yolk solution without seminal plasma (control) pre-freezing and post-freezing. One observes that there is no significant change in the size of the egg yolk lipid droplets, and no coagulation has occurred.

## COc1cc(/C=C/C(=O)CC(=O)/C=C/c2ccc(O)c(OC)c2)ccc1O [curcumin]
Area of coagulation, seminal plasma with vs without inhibitor, FIG. 8
  coagulation of egg yolk particles compared to Control: statically significant decrease
Frozen to −80° C. >24 hrs, thawed at 37° C., single pygmy buck, p < 0.05
  Post-Thaw Area: 35.6* pixel^2
Goat seminal plasma plus lactose yolk extender, 0.2% curcumin, single pygmy buck, p < 0.05
  Pre-Freeze Area: 26.3* pixel^2
pre-freeze seminal plasma with 0.2% plant-derived curcumin vs without curcumin
  pre-freeze coagulation: less coagulated
Single pygmy buck, untreated seminal plasma ranks 2
  Coagulation rank: 1
